Molecules are shown by their SMILES.

The data set can be described thus: in vitro. The conditions noted are these: human, hela cells, % viability.

In general, viability refers to a read-out of living cells in per cent, often relative to untreated cells. For the compound `FC(F)(F)c1[nH]c2ncccc2c1CN1CCN2CCCCC2C1` (stereo not shown) [CBK285355], the viability at 28.5 h, 10 µM is 80.9%. Then `O=C(NCC1CCCO1)c1ccc(-n2ccnc2)c(-n2cccc2)c1` (stereo not shown) [CBK285356], with 98.2%; and `Cc1ccc(C2(CN3CCC(NC(=O)c4cc[nH]n4)CC3)CC2)cc1` [CBK285360], with 97.8%; and `Cc1ccc(CN2C[C@@H]3CC[C@@](O)(c4ncccc4C)[C@@H]3C2)o1` [CBK285361], with 82.6%. For `C=CCNC(=O)Cn1c(-c2ccc(OC)cc2)cc2cccnc21` [CBK285363], the viability at 28.5 h, 10 µM came to 83.2%. Then `O=C(NCc1ccncc1)c1ccc(-n2ccnc2)c(-n2cccc2)c1` [CBK285367], with 88.4%; and `O=C(NC1CCCC1)c1ccc(-n2ccnc2)c(-n2cccc2)c1` [CBK285368], with 94.1%; and `CCN(CC)C(=O)c1ccc(-n2ccnc2)c(-n2cccc2)c1` [CBK285371], with 86.3%. Next, `CC1CC(C)CN(C(=O)c2ccc(-n3ccnc3)c(-n3cccc3)c2)C1` (stereo not shown) [CBK285372]: 101%; `Cn1nccc1C(=O)NC1CCN(CC2(c3ccccc3)CC2)CC1` [CBK285373]: 106%. As for `COc1ccc(C2(CN3CCC(NC(=O)C(C)C)CC3)CC2)cc1` [CBK285374], the viability at 28.5 h, 10 µM worked out at 104%.

Consider `OC1(c2cccnc2F)CCN(Cc2cc(F)cc(F)c2)CC1` [CBK285375], for which the viability at 28.5 h, 10 µM worked out at 81.5%. Then `O=C(NC1CC2(CCOCC2)Oc2ccccc21)c1cccs1` (stereo not shown) [CBK285377], with 85.6%.

`O=C(NC1CC2(CCOCC2)Oc2ccccc21)c1ccco1` (stereo not shown) [CBK285378]: the viability at 28.5 h, 10 µM was found to be 98%. For `COc1ccc(-c2cc3cccn(CC(=O)N(C)C)c-3n2)cc1` [CBK285382], the viability at 28.5 h, 10 µM came to 105%. Next, `O=C(Cn1c(-c2ccc(F)cc2)cc2cccnc21)N1CCOCC1` [CBK285383]: 94.8%. Next, `O=C(Cn1c(-c2ccc(F)cc2)cc2cccnc21)N1CCCC1` [CBK285384]: 102%; `CCN1CCN(Cc2c(C3CCCC3)[nH]c3ncccc23)CC1` [CBK285386]: 97%; `COCC(=O)NC1CCN(CC2(c3ccc(F)cc3)CCCC2)CC1` [CBK285387]: 95.5%.

Regarding `CCC(C)NC(=O)Cn1c(C2CCOCC2)cc2cccnc21` (stereo not shown) [CBK285390], the viability at 28.5 h, 10 µM was 104%. On to `Cn1nccc1C(=O)NC(Cc1ccsc1)c1cccnc1` (stereo not shown) [CBK285394], for which the viability at 28.5 h, 10 µM was found to be 98.6%. Next, `O=C(CCc1ccno1)NC(Cc1ccsc1)c1cccnc1` (stereo not shown) [CBK285395]: 97.3%; `O=C(Cn1cccn1)NC(Cc1ccsc1)c1cccnc1` (stereo not shown) [CBK285396]: 97%.

In the case of `O=C(c1nc2ccccc2s1)C1CCNCC1` [CBK285397], the viability at 28.5 h, 10 µM is 103%. As to `C=Cn1cc(CN2CCCC(O)(c3ccc(F)cc3)CC2)c(C)n1` (stereo not shown) [CBK285398], the viability at 28.5 h, 10 µM was 106%. With `COc1ccc(CN[C@@H]2CCC[C@H]2Cc2cc(C)no2)cc1` [CBK285401], the viability at 28.5 h, 10 µM was determined as 94.4%. Then `Cc1cc(C[C@@H]2COC[C@H]2NCc2ccc(Cl)cc2)on1` [CBK285402], with 93.3%; and `Cc1cc(C2CCCCCN2C(=O)c2cc(C3CC3)on2)on1` (stereo not shown) [CBK285414], with 90.1%; and `Fc1ccc([C@@H]2CN(Cc3ccccn3)C[C@H]2c2cc[nH]n2)cc1` [CBK285416], with 104%. As to `FC(F)c1cc([C@@H]2CN(CC3CCOC3)C[C@H]2c2ccccc2)n[nH]1` (stereo partly shown) [CBK285430], the viability at 28.5 h, 10 µM turned out to be 98.5%.

In the case of `C[C@@H]1C[C@H](C(F)(F)F)n2nc(C3CCCN3C(=O)C3CC3)cc2N1` (stereo partly shown) [CBK285432], the viability at 28.5 h, 10 µM is 90.6%. Then `COC(=O)Cn1cc(CN2CC3CCCN3C[C@H]2C)c2ccccc21` (stereo partly shown) [CBK285436], with 92.2%. Regarding `Cc1cc(C2CCCCCN2C(=O)c2cccc(F)c2)on1` (stereo not shown) [CBK285448], the viability at 28.5 h, 10 µM came out at 96.8%. Regarding `CC(=O)N1CCC(c2nc(C3CCCC3)no2)C1` (stereo not shown) [CBK285452], the viability at 28.5 h, 10 µM turned out to be 104%. Then `Cc1cc(C[C@@H]2CCC[C@H]2NCc2c(C)nn(C(C)C)c2C)on1` [CBK285453], with 98.3%; and `CCCC(=O)N1CCC(c2nc(C3CCCC3)no2)C1` (stereo not shown) [CBK285457], with 106%; and `CCC(=O)N1CCC(c2nc(C3CCCC3)no2)C1` (stereo not shown) [CBK285458], with 95.3%.

In the case of `CC(=O)Nc1ccc(CN[C@@H]2CCC[C@H]2Cc2cc(C)no2)cc1` [CBK285459], the viability at 28.5 h, 10 µM amounted to 102%. Regarding `Cc1cc(C[C@@H]2COC[C@H]2NCc2ccc(C(F)(F)F)cc2)on1` [CBK285463], the viability at 28.5 h, 10 µM turned out to be 107%. Take `COCC(=O)N1c2ccccc2CC[C@@H]1C(=O)OC` [CBK285472]: the viability at 28.5 h, 10 µM was 103%. As for `COc1ccc(C2CCN(C(=O)C3CCCO3)CC2)cc1` (stereo not shown) [CBK285473], the viability at 28.5 h, 10 µM was 102%. Then `COC(=O)[C@H]1CCc2ccccc2N1C(=O)C(C)C` [CBK285474], with 100%.

On to `CCN(CC)C(=O)CN1CCC(c2ccc(F)cc2)CC1` [CBK285475], for which the viability at 28.5 h, 10 µM was determined as 108%. Next, `COc1ccc(C2(C(=O)N3CCC(c4ccncc4)CC3)CC2)cc1` [CBK285476]: 111%. In the case of `CC(C)CC(=O)N1CCC(n2c(=O)oc3ccc(Cl)cc32)CC1` [CBK285477], the viability at 28.5 h, 10 µM turned out to be 105%.

With `COC(=O)[C@H]1CCc2ccccc2N1C(=O)C1CCC1` [CBK285478], the viability at 28.5 h, 10 µM is 100%.

With `O=C(N1CCC(c2ccncc2)CC1)C1(c2ccccc2)CC1` [CBK285480], the viability at 28.5 h, 10 µM is 102%.

In the case of `COc1ccccc1CC(=O)N1CCN(Cc2ccco2)C[C@@H]1C` [CBK285481], the viability at 28.5 h, 10 µM was found to be 105%. Next, `CC(C(=O)N1CCC(c2ccncc2)CC1)c1ccccc1` (stereo not shown) [CBK285484]: 99.1%. Then `COc1cccc(CN2CCN(C(=O)Cc3cccs3)[C@@H](C)C2)c1` [CBK285487], with 104%; and `CCn1cc(C(=O)N2CCN(Cc3ccco3)C[C@@H]2C(C)C)c(C)n1` [CBK285488], with 110%; and `C[C@@H]1CN(Cc2ccco2)CCN1C(=O)c1nccc2ccccc12` [CBK285489], with 99.8%. Consider `CC(C)[C@H]1CN(Cc2ccco2)CCN1C(=O)c1cscn1` [CBK285490], for which the viability at 28.5 h, 10 µM came to 99.6%.

For `O=C(C1CCCC1)N1C[C@@H]2CCCCN(Cc3cccnc3)[C@@H]2C1` [CBK285492], the viability at 28.5 h, 10 µM was 101%. In the case of `CC(=O)N1C[C@@H]2CCCCN(CCOc3ccccc3)[C@@H]2C1` [CBK285494], the viability at 28.5 h, 10 µM was determined as 107%. Turning to `CC(=O)N1C[C@@H]2CCCCN(CCc3ccc(F)cc3)[C@@H]2C1` [CBK285495], the viability at 28.5 h, 10 µM is 112%. For `O=C(c1ccccc1)N1C[C@@H]2CCCCN(CC3CC3)[C@@H]2C1` [CBK285498], the viability at 28.5 h, 10 µM stood at 102%. Turning to `O=C(C1CCCC1)N1CCCC1c1nnc(-c2ccsc2)o1` (stereo not shown) [CBK285506], the viability at 28.5 h, 10 µM was found to be 102%. For `O=C(Cc1ccsc1)N1C[C@@H]2CCCCN(CC3CC3)[C@@H]2C1` [CBK285507], the viability at 28.5 h, 10 µM was 104%.

On to `COC(=O)CN1CCCC[C@H]2CN(C(=O)Cc3ccsc3)C[C@H]21` [CBK285509], for which the viability at 28.5 h, 10 µM was determined as 111%.

Consider `COc1cccc(CN2CCCC[C@H]3CN(C(C)=O)C[C@H]32)c1` [CBK285510], for which the viability at 28.5 h, 10 µM came out at 107%.

With `O=C(c1ccccc1)N1C[C@@H]2CCCCN(Cc3cccnc3)[C@@H]2C1` [CBK285512], the viability at 28.5 h, 10 µM amounted to 98.7%. Next, `CS(=O)(=O)N1C[C@@H]2CCCCN(Cc3cccc(F)c3F)[C@@H]2C1` [CBK285513]: 95.6%; `COc1ccccc1CC(=O)N1CCCC1c1nc2ccccc2[nH]1` (stereo not shown) [CBK285517]: 94.6%. Then `COC1CCCC(C(=O)N2CCC(c3onc4c3CCC4)CC2)C1` (stereo not shown) [CBK285519], with 103%; and `CC(C)OC(=O)[C@@H]1CCN(C(=O)CCC2NC(=O)NC2=O)[C@@H]1c1ccc(F)cc1` (stereo partly shown) [CBK285520], with 103%; and `CC(C)CN1CCC2(CC=CCN(Cc3ccc(F)cc3)C2=O)CC1` [CBK285521], with 116%. As to `COc1ccc([C@H]2CN(C(=O)c3ccccn3)[C@@H]3CCCN(C(C)=O)[C@H]23)cc1` [CBK285523], the viability at 28.5 h, 10 µM was found to be 91.4%. Next, `CC(C)N1CCC[C@@H]2CN(C(=O)c3cccc(C(F)(F)F)c3)C[C@@H]21` [CBK285525]: 96%; `CN1CC[C@H](c2ccccc2)[C@@H]2[C@H]1CCCCN2C(=O)c1ccc(=O)oc1` [CBK285527]: 93.2%.

As to `O=C(CCC1CCCC1)N1C[C@@H]2CCCCN(CC3CC3)[C@@H]2C1` [CBK285531], the viability at 28.5 h, 10 µM came to 94%. For `Cc1cccc(Nc2ccc(C3CCCCN3Cc3ccc4nccnc4c3)cn2)n1` (stereo not shown) [CBK285536], the viability at 28.5 h, 10 µM was 76.2%.

Regarding `COc1ccc(C(NC(=O)Cc2ccc(-n3nnnc3C)cc2)c2ccccc2)cc1` (stereo not shown) [CBK285537], the viability at 28.5 h, 10 µM stood at 92.8%. For `CCC(C)NC(=O)C1(Cc2ccc(-c3cc(F)ccc3OC)cc2)CCOCC1` (stereo not shown) [CBK285539], the viability at 28.5 h, 10 µM was found to be 102%. Regarding `COc1ccc(F)cc1-c1ccc(CC2(C(=O)NCc3cccs3)CCOCC2)cc1` [CBK285540], the viability at 28.5 h, 10 µM turned out to be 112%.

Consider `COc1ccc(F)cc1-c1cccc(CC2(C(=O)NC3CCCCC3)CCOCC2)c1` [CBK285541], for which the viability at 28.5 h, 10 µM was 92.8%. Regarding `COc1ccc([C@H]2CN(Cc3ccccc3)[C@@H]3CCN(C(=O)c4ccccc4F)C[C@H]23)cc1` [CBK285542], the viability at 28.5 h, 10 µM came to 91.1%. Take `O=C(c1cccs1)N1C[C@H](c2ccc(F)cc2)[C@H]2CN(Cc3ccccc3)CC[C@H]21` [CBK285544]: the viability at 28.5 h, 10 µM amounted to 91.8%. Then `O=C(c1cccs1)N1C[C@H](c2ccc(F)cc2)[C@H]2CN(Cc3ccc(F)cc3)CC[C@H]21` [CBK285545], with 91.3%.

Values taken from PMC12040169 (PLOS Biology, 2025).
